Laboratory results as given in publication PMC5125695, “Antiviral Efficacy of Verdinexor In Vivo in Two Animal Models of Influenza A Virus Infection” (PLoS ONE, 2016).
Read-outs that look alike come from different tables or passages of the source.

How the values were obtained:
[1] = system: A/California/04/09; parameters: species or system ferrets; settings: in vivo
[2] = system: A/California/04/09; parameters: species or system ferrets; settings: in vivo; remark: listed apart in the source
[3] = system: A/California/04/09; type: in vivo, ferrets
[4] = system: A/California/04/09; parameters: species or system ferrets; settings: in vivo; remark: listed apart in the source
[5] = preliminary results, phase I and II studies; cited from earlier work
[6] = human, in vivo; cited from earlier work
[7] = mice, 20 mg/kg at day 1 and 3; data not shown
[8] = system: A/California/04/09-MA; settings: cited from earlier work
[9] = in vivo
[10] = in vivo; settings: male, po, 5 mg/kg
[11] = system: various influenza A and B virus strains; settings: cited from earlier work

In the case of CCOC(=O)C1=C[C@@H](OC(CC)CC)[C@H](NC(C)=O)[C@@H](N)C1 [oseltamivir, reference compound], the “Infiltrating leukocytes in nasal washes at day 2 pi” value [1] is reported as “Lower numbers of infiltrating leukocytes”, the “Lung virus titers at day 4 pi” value [2] is reported as “considerably (p≤0.001) reduced lung virus titers” and the “IFN-γ expression in nasal exudates at day 2 and 4 pi” value ([3]; in vivo) is reported as “trend toward reduced IFN-γ expression”. For the same molecule, the “IL-12p40 expression in nasal exudates at day 2 pi” value (“IL-12p40 expression” below) ([3]; in vivo) was “reduced IL-12p40 expression”, the “TNF-α expression in nasal exudates at day 2 pi” value ([3]; in vivo) was “reduced TNF-α expression” and the “Influenza-associated lung pathology and inflammation” value [4] was “limited reduction in pathology”. The “Lung score of the representative animal (range 0–4)” value (shortened to “Lung score”) [4] was 3.
For O=C(/C=C\n1cnc(-c2cc(C(F)(F)F)cc(C(F)(F)F)c2)n1)NNc1cnccn1 [selinexor], the “Anti-cancer activity in human patients” value [5] is given as “evidence of anti-cancer activity” and the “Oral exposure in human patients” value [5] is given as “good oral exposure”.
For O=C(/C=C\n1cnc(-c2cc(C(F)(F)F)cc(C(F)(F)F)c2)n1)NNc1ccccn1 [verdinexor], the “Safety and tolerability in a phase I clinical trial” value [6] is listed as “safe and well-tolerated”, the “Infiltrating leukocytes in nasal washes at day 2 pi” value [1] is listed as “Lower numbers of infiltrating leukocytes” and the “Infiltrating leukocytes in nasal washes at day 4 pi” value ([1]; 10 mg/kg) is listed as “significant (p≤0.05) reduction”. For the same molecule, the “Infiltrating leukocytes in nasal washes at day 4 pi” value ([1]; 25 mg/kg) was “significant (p≤0.05) reduction”, the “Efficacy and tolerability of the treatment regimen” value [7] was “most efficacious yet well tolerated” and the “Virus burden and inflammatory cytokines expression in lungs” value ([8]; mice infected with A/California/04/09-MA) was “efficacious in limiting virus burden and inflammatory cytokines expression”. The “Lung pathology and mortality upon lethal virus infection” value ([8]; mice, oral verdinexor) was “reduced lung pathology and mortality”, the “Lung virus titers at day 4 pi” value ([2]; 10 mg/kg) was “considerably (p≤0.001) reduced lung virus titers” and the “Lung virus titers at day 4 pi” value ([2]; 15 mg/kg) was “considerably (p≤0.001) reduced lung virus titers”. For the same molecule, the “Lung virus titers at day 4 pi” value ([2]; 25 mg/kg) was “considerably (p≤0.001) reduced lung virus titers”, the “Clearance from the plasma” value [9] was “more rapidly cleared from the plasma compared to mice” and the Oral bioavailability ([9]; po) was “orally bioavailable”. The AUC(0-inf) [10] was 3.51 µg·h/mL, the AUC(0-t) [10] was 3.51 µg·h/mL and the Cmax [10] was 1.49 µg/mL. For the same molecule, the Tmax [10] was 0.361 h, the half-life [10] was 1.84 h and the “IFN-γ expression in nasal exudates at day 2 and 4 pi” value ([3]; […], not statistically significant) was “trend toward reduced IFN-γ expression”. The “IL-12p40 expression” value ([3]; in vivo, 10 mg/kg) was “reduced IL-12p40 expression”, the “IL-12p40 expression” value ([3]; in vivo, 25 mg/kg) was “reduced IL-12p40 expression” and the “TNF-α expression in nasal exudates at day 2 pi” value ([3]; in vivo, 25 mg/kg) was “reduced TNF-α expression”. The “Influenza-associated lung pathology and inflammation” value ([4]; 10 mg/kg) was “significant amelioration”, the “Lung score” value ([4]; 10 mg/kg) was 2 and the “Influenza-associated lung pathology and inflammation” value ([4]; 15 mg/kg) was “limited reduction in pathology”. For the same molecule, the “Lung score” value ([4]; 15 mg/kg) was 2, the “Influenza-associated lung pathology and inflammation” value ([4]; 25 mg/kg) was “significant amelioration” and the “Lung score” value ([4]; 25 mg/kg) was 2. The “Replication of various influenza A and B virus strains” value [11] was “effective to inhibit the replication”.
